Experimental data published in ChEMBL document CHEMBL1201862, “PubChem BioAssay data set” (2004).
Activity calls are given as the source filed them.

Legend:
[1] = molecular target: T1, Calpain-2 catalytic subunit (Sus scrofa, UniProt P43367); assay: pig calpain II inhibitor potency, dose response, biochemical, fluorogenic peptide substrate (AID 1420); format: functional
T1 sequence (P43367 whole entry): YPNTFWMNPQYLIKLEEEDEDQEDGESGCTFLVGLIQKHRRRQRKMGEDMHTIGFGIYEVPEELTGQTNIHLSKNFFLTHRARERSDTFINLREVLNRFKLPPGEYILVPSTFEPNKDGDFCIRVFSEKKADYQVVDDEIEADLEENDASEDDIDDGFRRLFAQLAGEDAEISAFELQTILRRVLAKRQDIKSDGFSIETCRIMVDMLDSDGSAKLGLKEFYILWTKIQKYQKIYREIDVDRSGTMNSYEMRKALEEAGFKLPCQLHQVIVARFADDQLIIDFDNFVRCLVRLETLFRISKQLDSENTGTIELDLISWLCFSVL

Insulin-degrading enzyme [2] = molecular target: T2, Insulin-degrading enzyme (Homo sapiens, UniProt P14735); assay: activators of recombinant IDE enzyme, dose response, counter-screen for IDE activator project, biochemical, fluorescence polarization (AID 588681)
Insulin-degrading enzyme [3] = molecular target: T2, Insulin-degrading enzyme; assay: activators of endogenous IDE in HEK cells, dose response, cell-based, fluorescence polarization (AID 588439); format: functional
HEK293 [4] = assay: HEK cell cytotoxicity by LDH release, dose response, cytotoxicity control for IDE activator project, fluorescence, HEK cells (AID 588440); format: functional, cell-based; settings: Homo sapiens;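 also: cytotoxicity by LDH release measuring loss of membrane integrity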
HEK293 [5] = assay: optical interference in Abeta FP readout, dose response, artefact control for IDE activator project, biochemical, fluorescence polarization (AID 588442); format: functional, cell-based; settings: Homo sapiens
[6] = inhibitors of intracellular T. cruzi replication, confirmation, NIH3T3 host cells, beta-gal luminescence (AID 2044); format: functional, cell-based;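 also: intracellular parasites grown in NIH/3T3 mouse fibroblasts as host cells; luminescent beta-galactosidase reporter signal from transgenic T. cruzi replicating inside host cells; inhibitors lower the luminescence signal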
[7] = cytotoxicity toward NIH3T3 fibroblasts, dose response, counter-screen, cell-based, ATP luminescence, mouse fibroblasts (AID 2010); format: functional;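 also: cells exposed to compound for about 90 hours before reading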
[8] = molecular target: T3, Heat shock factor protein 1 (Mus musculus, UniProt P38532); assay: HSF1 potentiators in luciferase reporter cells, confirmation, cell-based, NIH3T3, luminescence, dose retest (AID 435004); format: functional;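 also: stress induced by proteasome inhibitor MG132 added 30 min after compound; luciferase reporter driven by HSF1 response element in NIH3T3 cells; actives raise luminescence as potentiators of the MG132 stress response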
T3 sequence (P38532 whole entry): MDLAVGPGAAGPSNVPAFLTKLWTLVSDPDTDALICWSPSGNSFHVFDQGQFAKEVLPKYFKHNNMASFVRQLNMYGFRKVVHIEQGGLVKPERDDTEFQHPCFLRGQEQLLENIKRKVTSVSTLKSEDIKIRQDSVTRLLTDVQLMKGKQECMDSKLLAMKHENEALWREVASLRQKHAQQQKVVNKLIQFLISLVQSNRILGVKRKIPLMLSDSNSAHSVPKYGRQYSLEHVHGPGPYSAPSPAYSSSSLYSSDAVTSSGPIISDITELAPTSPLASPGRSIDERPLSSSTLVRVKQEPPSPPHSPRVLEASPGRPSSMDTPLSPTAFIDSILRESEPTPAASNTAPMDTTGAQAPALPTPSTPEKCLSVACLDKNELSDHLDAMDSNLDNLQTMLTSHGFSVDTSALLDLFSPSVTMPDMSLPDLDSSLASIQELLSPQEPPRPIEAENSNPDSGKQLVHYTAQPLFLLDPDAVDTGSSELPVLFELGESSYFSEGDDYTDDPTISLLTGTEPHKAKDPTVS

CAAX prenyl protease 2 = molecular target: T4, CAAX prenyl protease 2 (Saccharomyces cerevisiae S288c, UniProt Q03530); assay: yeast Rce1 CaaX protease inhibitors, dose response, biochemical, plate reader, dry powder retest (AID 588851)
T4 sequence (Q03530 whole entry): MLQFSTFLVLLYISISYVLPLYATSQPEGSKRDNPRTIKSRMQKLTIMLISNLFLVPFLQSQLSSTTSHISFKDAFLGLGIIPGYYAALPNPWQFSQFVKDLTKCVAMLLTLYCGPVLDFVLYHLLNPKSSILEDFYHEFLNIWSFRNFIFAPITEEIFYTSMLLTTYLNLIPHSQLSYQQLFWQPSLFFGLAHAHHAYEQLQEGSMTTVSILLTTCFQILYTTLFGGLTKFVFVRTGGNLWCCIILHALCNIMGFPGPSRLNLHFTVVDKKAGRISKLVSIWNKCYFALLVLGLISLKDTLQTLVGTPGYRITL

CHO-K1 = assay: Counterscreen for antagonists of the orexin 1 receptor (OX1R; HCRTR1): Homogeneous time resolved fluorescence (HTRF)-based cell-based dose response assay to identify antagonists of the parental CHO-K1 cell line. [Related pubchem assays (depositor defined):AID434989, AID435008, AID463079, AID485270, AID492963, AID492964, AID492965, AID493232, AID504699, AID504701]; format: functional; settings: Cricetulus griseus
[9] = Counterscreen for antagonists of the orexin 1 receptor (OX1R; HCRTR1): Fluorescence-based cell-based high throughput dose response assay to identify antagonists of the parental CHO cell line. [Related pubchem assays (depositor defined):AID434989, AID435008, AID463079, AID485270, AID492963, AID492964, AID492965, AID493232, AID504699, AID504701]; format: functional
[10] = molecular target: T5, Orexin/Hypocretin receptor type 1 (Homo sapiens, UniProt O43613); assay: Homogeneous Time Resolved Fluorescence (HTRF)-based cell-based high throughput dose response assay for antagonists of the orexin 1 receptor (OX1R; HCRTR1). [Related pubchem assays (depositor defined):AID434989, AID435008, AID463079, AID485270, AID492963, AID492964, AID492965, AID493232, AID504717, AID504718]; format: functional
[11] = molecular target: T5, Orexin/Hypocretin receptor type 1; assay: Fluorescence-based cell-based high throughput dose response assay for antagonists of the orexin 1 receptor (OX1R; HCRTR1). [Related pubchem assays (depositor defined):AID434989, AID435008, AID463079, AID485270, AID492963, AID492964, AID492965, AID493232, AID504717, AID504718]; format: functional
Orexin receptor type 2 [12] = molecular target: T6, Orexin receptor type 2 (Homo sapiens, UniProt O43614); assay: Counterscreen assay for antagonists of the orexin 1 receptor (OX1R; HCRTR1): Fluorescence-based cell-based dose response assay for antagonists of the orexin 2 receptor (OX2R; HCRTR2), run by assay provider.; format: functional
Orexin receptor type 2 [13] = molecular target: T6, Orexin receptor type 2; assay: Counterscreen assay for antagonists of the orexin 1 receptor (OX1R; HCRTR1): Homogeneous Time Resolved Fluorescence (HTRF)-based cell-based dose response assay for antagonists of the orexin 2 receptor (OX2R; HCRTR2), run by assay provider.; format: functional
[14] = molecular target: T7, Sentrin-specific protease 8 (Homo sapiens, UniProt Q96LD8); assay: SENP8 protease inhibitors, SAR follow-up, biochemical, luminescence (AID 504501); format: functional
T7 sequence (Q96LD8 whole entry): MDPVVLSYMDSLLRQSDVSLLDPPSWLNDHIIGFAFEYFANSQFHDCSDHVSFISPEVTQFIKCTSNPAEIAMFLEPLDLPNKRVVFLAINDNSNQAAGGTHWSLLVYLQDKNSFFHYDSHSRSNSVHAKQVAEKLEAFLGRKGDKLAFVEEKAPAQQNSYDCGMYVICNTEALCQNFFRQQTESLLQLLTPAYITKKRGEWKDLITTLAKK

Caspase-3 = molecular target: T8, Caspase-3 (Homo sapiens, UniProt P42574); assay: SAR Analysis of small molecule inhibitors of Sentrin-specific proteases (SENPs) using a Caspase-3 Selectivity assay. [Related pubchem assays (depositor defined):AID2540, AID2599, AID434973, AID489001]; format: functional
T8 sequence (P42574 whole entry): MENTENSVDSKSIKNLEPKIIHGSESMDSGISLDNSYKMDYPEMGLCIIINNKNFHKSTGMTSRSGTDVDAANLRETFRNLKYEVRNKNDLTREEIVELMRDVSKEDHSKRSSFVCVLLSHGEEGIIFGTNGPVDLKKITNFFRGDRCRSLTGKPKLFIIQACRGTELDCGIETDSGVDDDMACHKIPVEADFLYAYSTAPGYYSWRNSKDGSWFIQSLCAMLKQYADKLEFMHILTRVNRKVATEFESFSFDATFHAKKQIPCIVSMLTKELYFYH

[15] = molecular target: T9, Sentrin-specific protease 6 (Homo sapiens, UniProt Q9GZR1); assay: SAR Analysis of small molecule inhibitors of Sentrin-specific protease 6 (SENP6) using a Luminescent assay. [Related pubchem assays (depositor defined):AID2582, AID2599]; format: functional
T9 sequence (Q9GZR1 whole entry): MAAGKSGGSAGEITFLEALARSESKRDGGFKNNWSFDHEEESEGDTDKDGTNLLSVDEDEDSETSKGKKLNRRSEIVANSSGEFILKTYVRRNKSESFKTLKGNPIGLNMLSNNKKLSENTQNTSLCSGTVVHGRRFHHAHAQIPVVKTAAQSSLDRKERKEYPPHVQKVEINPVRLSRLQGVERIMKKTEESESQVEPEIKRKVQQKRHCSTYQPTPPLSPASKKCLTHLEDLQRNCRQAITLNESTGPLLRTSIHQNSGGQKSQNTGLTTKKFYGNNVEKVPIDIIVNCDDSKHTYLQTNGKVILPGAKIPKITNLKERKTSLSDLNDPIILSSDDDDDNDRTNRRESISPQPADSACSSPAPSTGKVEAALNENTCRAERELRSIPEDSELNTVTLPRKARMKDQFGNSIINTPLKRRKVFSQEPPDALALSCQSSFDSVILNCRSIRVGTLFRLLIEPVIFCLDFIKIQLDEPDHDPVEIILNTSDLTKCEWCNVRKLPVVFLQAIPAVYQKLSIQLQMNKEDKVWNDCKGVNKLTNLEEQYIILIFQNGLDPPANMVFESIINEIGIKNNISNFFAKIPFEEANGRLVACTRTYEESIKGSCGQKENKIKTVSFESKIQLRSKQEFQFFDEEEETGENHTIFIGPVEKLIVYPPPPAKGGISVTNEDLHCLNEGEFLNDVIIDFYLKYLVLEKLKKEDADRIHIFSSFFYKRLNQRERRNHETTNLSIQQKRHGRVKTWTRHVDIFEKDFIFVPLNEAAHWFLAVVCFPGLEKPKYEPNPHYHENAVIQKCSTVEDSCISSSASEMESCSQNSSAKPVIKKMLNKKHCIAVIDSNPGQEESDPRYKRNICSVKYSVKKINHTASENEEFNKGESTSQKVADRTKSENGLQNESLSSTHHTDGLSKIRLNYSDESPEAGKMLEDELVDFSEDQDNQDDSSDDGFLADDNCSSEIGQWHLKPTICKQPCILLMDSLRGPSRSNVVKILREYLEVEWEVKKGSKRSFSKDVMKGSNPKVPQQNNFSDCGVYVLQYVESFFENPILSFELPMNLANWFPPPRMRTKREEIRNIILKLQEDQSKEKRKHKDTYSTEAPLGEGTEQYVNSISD

[16] = molecular target: T10, Sentrin-specific protease 7 (Homo sapiens, UniProt Q9BQF6); assay: SENP7 protease inhibitors, SAR follow-up, biochemical, luminescence (AID 504497); format: functional
T10 sequence (Q9BQF6 whole entry): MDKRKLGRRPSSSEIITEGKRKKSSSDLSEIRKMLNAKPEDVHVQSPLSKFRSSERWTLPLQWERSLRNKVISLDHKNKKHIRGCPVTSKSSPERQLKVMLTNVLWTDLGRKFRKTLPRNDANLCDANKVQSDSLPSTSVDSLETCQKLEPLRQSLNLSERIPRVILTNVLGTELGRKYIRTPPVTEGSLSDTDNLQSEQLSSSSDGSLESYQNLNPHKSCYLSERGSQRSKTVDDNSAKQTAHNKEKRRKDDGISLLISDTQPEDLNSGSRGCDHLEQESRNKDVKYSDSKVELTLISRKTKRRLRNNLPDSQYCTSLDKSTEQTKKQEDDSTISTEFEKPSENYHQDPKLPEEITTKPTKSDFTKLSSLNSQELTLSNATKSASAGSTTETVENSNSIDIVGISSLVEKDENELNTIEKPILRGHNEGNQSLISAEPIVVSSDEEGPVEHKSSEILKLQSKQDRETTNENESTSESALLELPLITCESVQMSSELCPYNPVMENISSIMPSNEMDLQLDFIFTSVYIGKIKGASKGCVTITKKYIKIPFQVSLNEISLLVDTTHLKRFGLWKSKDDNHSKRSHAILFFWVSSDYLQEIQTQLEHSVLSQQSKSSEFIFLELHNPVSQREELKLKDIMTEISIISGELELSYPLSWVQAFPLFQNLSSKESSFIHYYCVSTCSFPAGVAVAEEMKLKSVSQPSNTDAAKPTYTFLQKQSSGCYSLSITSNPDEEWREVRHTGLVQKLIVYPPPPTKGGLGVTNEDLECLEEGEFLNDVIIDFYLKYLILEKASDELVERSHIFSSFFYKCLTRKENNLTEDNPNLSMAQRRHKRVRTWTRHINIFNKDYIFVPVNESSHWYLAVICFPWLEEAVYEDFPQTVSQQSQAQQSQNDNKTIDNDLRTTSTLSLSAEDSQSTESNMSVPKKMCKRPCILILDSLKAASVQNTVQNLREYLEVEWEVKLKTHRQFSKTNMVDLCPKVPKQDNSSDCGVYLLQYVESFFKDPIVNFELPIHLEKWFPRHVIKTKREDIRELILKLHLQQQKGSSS

T5 sequence (O43613 whole entry): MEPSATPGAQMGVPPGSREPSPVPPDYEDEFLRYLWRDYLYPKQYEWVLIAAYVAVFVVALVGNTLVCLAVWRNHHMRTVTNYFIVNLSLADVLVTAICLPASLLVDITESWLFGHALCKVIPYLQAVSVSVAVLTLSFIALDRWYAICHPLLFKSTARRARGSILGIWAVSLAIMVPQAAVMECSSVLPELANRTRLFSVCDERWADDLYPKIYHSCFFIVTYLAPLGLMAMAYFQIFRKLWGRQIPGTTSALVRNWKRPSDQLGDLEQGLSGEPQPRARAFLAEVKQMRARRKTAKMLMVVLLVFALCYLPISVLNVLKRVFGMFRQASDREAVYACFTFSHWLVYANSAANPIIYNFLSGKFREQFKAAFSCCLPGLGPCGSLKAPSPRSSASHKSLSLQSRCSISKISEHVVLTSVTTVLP
T2 sequence (P14735 whole entry): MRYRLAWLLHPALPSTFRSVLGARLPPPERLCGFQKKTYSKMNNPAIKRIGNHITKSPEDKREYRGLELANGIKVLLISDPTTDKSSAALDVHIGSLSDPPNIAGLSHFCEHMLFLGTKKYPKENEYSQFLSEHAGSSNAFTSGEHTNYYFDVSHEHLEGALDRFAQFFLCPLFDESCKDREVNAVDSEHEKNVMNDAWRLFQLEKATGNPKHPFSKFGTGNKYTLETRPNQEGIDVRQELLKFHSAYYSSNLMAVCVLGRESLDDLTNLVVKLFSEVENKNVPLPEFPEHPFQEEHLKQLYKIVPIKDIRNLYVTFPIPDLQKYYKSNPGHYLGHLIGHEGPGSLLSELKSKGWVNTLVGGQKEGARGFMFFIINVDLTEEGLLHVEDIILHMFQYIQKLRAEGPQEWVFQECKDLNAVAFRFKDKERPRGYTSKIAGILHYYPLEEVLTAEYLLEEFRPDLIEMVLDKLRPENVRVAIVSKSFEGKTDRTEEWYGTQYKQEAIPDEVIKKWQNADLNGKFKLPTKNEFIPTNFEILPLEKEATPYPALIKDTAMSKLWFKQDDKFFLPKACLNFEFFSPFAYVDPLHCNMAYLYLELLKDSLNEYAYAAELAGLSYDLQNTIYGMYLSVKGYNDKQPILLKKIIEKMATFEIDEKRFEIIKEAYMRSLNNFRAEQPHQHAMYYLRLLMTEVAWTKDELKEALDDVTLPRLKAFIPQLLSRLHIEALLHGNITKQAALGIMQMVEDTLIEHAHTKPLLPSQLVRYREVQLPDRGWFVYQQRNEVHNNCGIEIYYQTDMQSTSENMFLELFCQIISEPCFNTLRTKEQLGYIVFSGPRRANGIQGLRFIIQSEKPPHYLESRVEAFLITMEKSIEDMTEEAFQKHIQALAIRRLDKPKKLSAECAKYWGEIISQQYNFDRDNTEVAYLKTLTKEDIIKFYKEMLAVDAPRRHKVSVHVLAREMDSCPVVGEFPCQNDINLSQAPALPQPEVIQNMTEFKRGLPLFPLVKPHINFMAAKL
T6 sequence (O43614 whole entry): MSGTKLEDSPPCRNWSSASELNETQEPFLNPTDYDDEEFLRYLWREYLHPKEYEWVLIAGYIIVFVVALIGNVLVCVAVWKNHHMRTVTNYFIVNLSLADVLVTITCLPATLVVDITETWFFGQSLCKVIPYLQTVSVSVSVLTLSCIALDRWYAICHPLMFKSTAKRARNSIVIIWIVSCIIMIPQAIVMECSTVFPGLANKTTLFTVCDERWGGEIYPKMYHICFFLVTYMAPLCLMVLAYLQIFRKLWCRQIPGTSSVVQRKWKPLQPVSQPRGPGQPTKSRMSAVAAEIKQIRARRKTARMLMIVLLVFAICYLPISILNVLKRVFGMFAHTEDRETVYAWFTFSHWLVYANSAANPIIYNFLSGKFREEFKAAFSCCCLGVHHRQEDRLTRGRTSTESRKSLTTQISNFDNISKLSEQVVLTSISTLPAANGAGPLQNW

## COc1ccc(OCCNc2cc(N3CCOCC3)ccc2[N+](=O)[O-])cc1
[1]
  IC50: 13.8 µM (not active)
Insulin-degrading enzyme [2]
  EC50: > 54.7 µM (inactive)
Insulin-degrading enzyme [3]
  EC50: > 54.7 µM (inactive)
HEK293 [4]
  IC50: > 89.3 µM (inactive)
HEK293 [5]
  EC50: > 56 µM (inactive)

## COc1ccc(-n2c(SCc3ccc([N+](=O)[O-])cc3)nnc2-c2ccc(C)cc2)cc1
[6]
  EC50: 1.35 µM (active)
[7]
  EC50: > 60 µM (inconclusive)
[8]
  EC50: > 260 µM (inactive)
CAAX prenyl protease 2
  AC50: 5.39 µM (active)

## COc1cccc(/C=C2/Oc3ccccc3N(CC(=O)NCC3CCCO3)C2=O)c1 (centres undefined)
CHO-K1
  IC50: > 66.2 µM (inactive)
[9]
  IC50: > 49.7 µM (inactive)
[10]
  IC50: 0.254 µM (active)
[11]
  IC50: 0.426 µM (active)
Orexin receptor type 2 [12]
  IC50: 3.82 µM (active)
Orexin receptor type 2 [13]
  IC50: 0.96 µM (active)

## O=C(Nc1ccncc1)c1ccc2c(c1)OCO2
[14]
  IC50: > 99 µM (inactive)
Caspase-3
  IC50: 14.4 µM (active)
[15]
  IC50: > 99 µM (inactive)
[16]
  IC50: 33.8 µM (active)
